Structures are written as SMILES.

The data set can be described thus: CellTiter 96 AQueous One Solution (MTS) cell proliferation assay. In kind it is cell-based. Particulars: human, MM.1S multiple myeloma cells; MM.1S cells, 72 h treatment; read-out: Cytotoxicity [EC50]. From the text:
The CellTiter 96® AQueous One Solution cell proliferation assay (Promega) was used on MM.1S multiple myeloma cell line to study the cytotoxic and cytostatic properties of the compounds. The assay is based on the cleavage of the tetrazolium salt, MTS, in the presence of an electron-coupling reagent PES (phenazine ethosulfate). The MTS tetrazolium compound is bioreduced by cells into a colored formazan product that is soluble in tissue culture medium. This conversion is presumably accomplished by NADPH or NADH produced by dehydrogenase enzymes in metabolically active cells. Assays are performed by adding a small amount of the CellTiter 96® AQueous One solution reagent directly to culture wells, incubating for 1-4 hours and then recording the absorbance at 490 nm with a 96-well plate reader.
The cells were seeded at 5×10^3 to 1.5×10^4 cells (depending on cell type) in each well of a 96-well plate in 100 μL of fresh culture medium and adherent cells were allowed to attach overnight. The stock solutions of the compounds were diluted in cell culture medium to obtain eight concentrations of each drug, ranging from 1 nM to 30 μM and DMSO at less than 1% v/v was used as a negative control. The resulting drug solutions were transferred onto the cells. After 72 h of treatment, 20 μl of CellTiter 96® AQueous reagent was added into each well of the 96-well assay plates and the plate was incubated at 37° C. for 1-4 hours in a humidified, 5% CO2 atmosphere. Then the absorbance of each well was recorded at 490 nm using a 96-well plate reader. In most cases, the assay was performed in triplicate and the results were presented as half maximal inhibitory concentration (IC50). Optical density versus compound concentration was plotted and analyzed using non-linear regression equations (IDBS XLfit) and the IC50 for each compound was calculated.
For `O=C(/C=C\n1cnc(-c2cc(C(F)(F)F)cc(C(F)(F)F)c2)n1)NCc1cncnc1` [Compound 14, (Z)-3-(3-(3,5-bis(trifluoromethyl)phenyl)-1H-1,2,4-triazol-1-yl)-N-(pyrimidin-5-ylmethyl)acrylamide], the EC50 at 72 h is below 1 µM.

On to `O=C(/C=C\n1cnc(-c2cc(C(F)(F)F)cc(C(F)(F)F)c2)n1)N1CCCC(F)(F)C1` [Example 5, (Z)-3-(3-(3,5-bis(trifluoromethyl)phenyl)-1H-1,2,4-triazol-1-yl)-1-(3,3-difluoropiperidin-1-yl)prop-2-en-1-one], for which the EC50 at 72 h fell in the range of 1 to 10 µM.

With `[2H]/C(=C/n1nc(-c2cc(C(F)(F)F)cc(C(F)(F)F)c2)nc1[2H])C(=O)N1CC(F)(F)C1` [Compound 40, D2-(Z)-3-(3-(3,5-bis(trifluoromethyl)phenyl)-1H-1,2,4-triazol-1-yl)-1-(3,3-difluoroazetidin-1-yl)prop-2-en-1-one], the EC50 at 72 h is below 1 µM.

On to `CN(C)CC1(F)CN(C(=O)/C=C\n2cnc(-c3cc(C(F)(F)F)cc(C(F)(F)F)c3)n2)C1` [Compound 63, (Z)-3-(3-(3,5-bis(trifluoromethyl)phenyl)-1H-1,2,4-triazol-1-yl)-1-(3-((dimethylamino)methyl)-3-fluoroazetidin-1-yl)prop-2-en-1-one], for which the 50% effective concentration (EC50) at 72 h was below 1 µM.

Turning to `CN(Cc1cncnc1)C(=O)/C=C\n1cnc(-c2cc(C(F)(F)F)cc(C(F)(F)F)c2)n1` [Compound 17, (Z)-3-(3-(3,5-bis(trifluoromethyl)phenyl)-1H-1,2,4-triazol-1-yl)-N-methyl-N-(pyrimidin-5-ylmethyl)acrylamide], the EC50 at 72 h fell in the range of 1 to 10 µM.

Consider `CN1CCC(CNC(=O)/C=C\n2cnc(-c3cc(C(F)(F)F)cc(C(F)(F)F)c3)n2)C1` (stereo not shown) [Compound 30, (Z)-3-(3-(3,5-bis(trifluoromethyl)phenyl)-1H-1,2,4-triazol-1-yl)-N-((1-methylpyrrolidin-3-yl)methyl)acrylamide], for which the EC50 at 72 h was below 1 µM.

Turning to `O=C(O)C1CN(C(=O)/C=C\n2cnc(-c3cc(C(F)(F)F)cc(C(F)(F)F)c3)n2)C1` [Compound 55, (Z)-1-(3-(3-(3,5-bis(trifluoromethyl)phenyl)-1H-1,2,4-triazol-1-yl)acryloyl)azetidine-3-carboxylic acid], the EC50 at 72 h fell in the range of 1 to 10 µM.

With `O=C(/C=C\n1cnc(-c2cc(C(F)(F)F)cc(C(F)(F)F)c2)n1)N1CC(F)(C(=O)O)C1` [Compound 62, (Z)-1-(3-(3-(3,5-bis(trifluoromethyl)phenyl)-1H-1,2,4-triazol-1-yl)acryloyl)-3-fluoroazetidine-3-carboxylic acid], the EC50 at 72 h fell in the range of 1 to 10 µM.

As for `CN(Cc1cnco1)C(=O)/C=C\n1cnc(-c2cc(C(F)(F)F)cc(C(F)(F)F)c2)n1` [Compound 22, (Z)-3-(3-(3,5-bis(trifluoromethyl)phenyl)-1H-1,2,4-triazol-1-yl)-N-methyl-N-(oxazol-5-ylmethyl)acrylamide], the EC50 at 72 h fell in the range of 1 to 10 µM.

For `O=C1CC(c2cc(C(F)(F)F)cc(C(F)(F)F)c2)CN1/C=C\C(=O)N1CC(F)(F)C1` (stereo not shown) [Compound 64, (Z)-4-(3,5-bis(trifluoromethyl)phenyl)-1-(3-(3,3-difluoroazetidin-1-yl)-3-oxoprop-1-enyl)pyrrolidin-2-one], the EC50 at 72 h was above 10 µM.

With `O=C(/C=C\n1cnc(-c2cc(C(F)(F)F)cc(C(F)(F)F)c2)n1)NC1CCc2ncccc21` (stereo not shown) [Compound 28, (Z)-3-(3-(3,5-bis(trifluoromethyl)phenyl)-1H-1,2,4-triazol-1-yl)-N-(6,7-dihydro-5H-cyclopenta[b]pyridin-5-yl)acrylamide], the EC50 at 72 h was in the range of 1 to 10 µM.

With `O=C(/C=C\n1cnc(-c2cc(C(F)(F)F)cc(C(F)(F)F)c2)c1)N1CC(F)(F)C1` [Compound 16, (Z)-3-(4-(3,5-bis(trifluoromethyl)phenyl)-1H-imidazol-1-yl)-1-(3,3-difluoroazetidin-1-yl)prop-2-en-1-one], the EC50 at 72 h is below 1 µM.

As for `CN1CCC(CNC(=O)/C=C\n2cnc(-c3cc(C(F)(F)F)cc(C(F)(F)F)c3)n2)CC1` [Compound 26, (Z)-3-(3-(3,5-bis(trifluoromethyl)phenyl)-1H-1,2,4-triazol-1-yl)-N-((1-methylpiperidin-4-yl)methyl)acrylamide], the EC50 at 72 h is below 1 µM.

`O=C(/C=C\n1cnc(-c2cc(C(F)(F)F)cc(C(F)(F)F)c2)n1)N1CC(O)(C(F)(F)F)C1` [Compound 51, (Z)-3-(3-(3,5-bis(trifluoromethyl)phenyl)-1H-1,2,4-triazol-1-yl)-1-(3-hydroxy-3-(trifluoromethyl)azetidin-1-yl)prop-2-en-1-one]: the EC50 at 72 h was below 1 µM.

Take `O=C(/C=C\n1cnc(-c2cc(C(F)(F)F)nc(C(F)(F)F)c2)n1)N1CC(F)(F)C1` [Example 9, (Z)-3-(3-(2,6-bis(trifluoromethyl)pyridin-4-yl)-1H-1,2,4-triazol-1-yl)-1-(3,3-difluoroazetidin-1-yl)prop-2-en-1-one]: the EC50 at 72 h was below 1 µM.

Take `CCN(C(=O)/C=C\n1cnc(-c2cc(C(F)(F)F)cc(C(F)(F)F)c2)n1)C(C)c1cccnc1` (stereo not shown) [Example 10, (Z)-3-(3-(3,5-bis(trifluoromethyl)phenyl)-1H-1,2,4-triazol-1-yl)-N-ethyl-N-(1-(pyridin-3-yl)ethyl)acrylamide]: the EC50 at 72 h lay in the range of 1 to 10 µM.

As to `O=C(/C=C\N1CCC(c2cc(C(F)(F)F)cc(C(F)(F)F)c2)C1)N1CC(F)(F)C1` (stereo not shown) [Compound 43, (Z)-3-(3-(3,5-bis(trifluoromethyl)phenyl)pyrrolidin-1-yl)-1-(3,3-difluoroazetidin-1-yl)prop-2-en-1-one], the EC50 at 72 h was above 10 µM.

In the case of `COC(=O)C1(F)CN(C(=O)/C=C\n2cnc(-c3cc(C(F)(F)F)cc(C(F)(F)F)c3)n2)C1` [Compound 61, (Z)-methyl 1-(3-(3-(3,5-bis(trifluoromethyl)phenyl)-1H-1,2,4-triazol-1-yl)acryloyl)-3-fluoroazetidine-3-carboxylate], the EC50 at 72 h was below 1 µM.

For `Cc1ncc(CNC(=O)/C=C\n2cnc(-c3cc(C(F)(F)F)cc(C(F)(F)F)c3)n2)c(C)n1` [Compound 31, (Z)-3-(3-(3,5-bis(trifluoromethyl)phenyl)-1H-1,2,4-triazol-1-yl)-N-((2,4-dimethylpyrimidin-5-yl)methyl)acrylamide], the EC50 at 72 h was below 1 µM.

As for `NC1C2CN(C(=O)/C=C\n3cnc(-c4cc(C(F)(F)F)cc(C(F)(F)F)c4)n3)CC12` (stereo not shown) [Compound 57, (Z)-1-(6-amino-3-azabicyclo[3.1.0]hexan-3-yl)-3-(3-(3,5-bis(trifluoromethyl)phenyl)-1H-1,2,4-triazol-1-yl)prop-2-en-1-one], the 50% effective concentration (EC50) at 72 h was below 1 µM.

`CN1CCCC(CNC(=O)/C=C\n2cnc(-c3cc(C(F)(F)F)cc(C(F)(F)F)c3)n2)C1` (stereo not shown) [Compound 27, (Z)-3-(3-(3,5-bis(trifluoromethyl)phenyl)-1H-1,2,4-triazol-1-yl)-N-((1-methylpiperidin-3-yl)methyl)acrylamide]: the EC50 at 72 h was below 1 µM.

`CC(NC(=O)/C=C\n1cnc(-c2cc(C(F)(F)F)cc(C(F)(F)F)c2)n1)c1cnccn1` (stereo not shown) [Compound 29, (Z)-3-(3-(3,5-bis(trifluoromethyl)phenyl)-1H-1,2,4-triazol-1-yl)-N-(1-(pyrazin-2-yl)ethyl)acrylamide]: the EC50 at 72 h lay within 1 to 10 µM.

Take `O=C(/C=C\n1cnc(-c2cc(C(F)(F)F)cc(C(F)(F)F)c2)n1)N1CCC(F)(F)C1` [Compound 20, (Z)-3-(3-(3,5-bis(trifluoromethyl)phenyl)-1H-1,2,4-triazol-1-yl)-1-(3,3-difluoropyrrolidin-1-yl)prop-2-en-1-one]: the EC50 at 72 h is below 1 µM.

Turning to `Cc1ncc(CNC(=O)/C=C\n2cnc(-c3cc(C(F)(F)F)cc(C(F)(F)F)c3)n2)cn1` [Compound 13, (Z)-3-(3-(3,5-bis(trifluoromethyl)phenyl)-1H-1,2,4-triazol-1-yl)-N-((2-methylpyrimidin-5-yl)methyl)acrylamide], the half-maximal effective concentration (EC50) at 72 h lay within 1 to 10 µM.

As for `O=C(/C=C\n1cnc(-c2cc(C(F)(F)F)cc(C(F)(F)F)c2)n1)N1CC(c2ccccn2)C1` [Compound 24, (Z)-3-(3-(3,5-bis(trifluoromethyl)phenyl)-1H-1,2,4-triazol-1-yl)-1-(3-(pyridin-2-yl)azetidin-1-yl)prop-2-en-1-one], the EC50 at 72 h was below 1 µM.

Turning to `O=C(/C=C\n1cnc(-c2cc(C(F)(F)F)cc(C(F)(F)F)c2)n1)N1CCC(F)(F)CC1` [Example 6, (Z)-3-(3-(3,5-bis(trifluoromethyl)phenyl)-1H-1,2,4-triazol-1-yl)-1-(4,4-difluoropiperidin-1-yl)prop-2-en-1-one], the EC50 at 72 h is 1 to 10 µM.

Turning to `O=C(/C=C\n1cnc(-c2cc(C(F)(F)F)cc(C(F)(F)F)c2)n1)N1CC(O)C1` [Compound 53, (Z)-3-(3-(3,5-bis(trifluoromethyl)phenyl)-1H-1,2,4-triazol-1-yl)-1-(3-hydroxyazetidine-1-yl)prop-2-en-1-one], the EC50 at 72 h was below 1 µM.

`O=C(/C=C\n1cnc(-c2cc(C(F)(F)F)cc(C(F)(F)F)c2)n1)NCC1CCCNC1` (stereo not shown) [Compound 19, (Z)-3-(3-(3,5-bis(trifluoromethyl)phenyl)-1H-1,2,4-triazol-1-yl)-N-(piperidin-3-ylmethyl)acrylamide]: the EC50 at 72 h was 1 to 10 µM.

The values are drawn from patent publication US20240376114A1, “NUCLEAR TRANSPORT MODULATORS AND USES THEREOF” (Karyopharm Therapeutics Inc., priority 2011, published 2024).
